Like-named read-outs stand apart in the source and are kept apart here.

The values that follow come from patent publication US10479780B2, “Aminopyrazole derivatives” (Chugai Seiyaku Kabushiki Kaisha, priority 2015, dated 2019).

Common to all, as to type: biochemical
In experiment [1] the target is T1, human Yes1 enzyme (Homo sapiens, UniProt P07947).
T1 construct: made in house
Briefly: Yes1 enzyme inhibitory activity (time-resolved fluorometry, biotinylated peptide phosphorylation). Particulars: read-out: YES_IC50. A digest of the protocol:
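Inhibition was expressed against a compound-free control to give IC50, using TR-FRET read-out (Eu-cryptate anti-pTyr antibody, streptavidin-XL665).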

The target in experiment [2] is T2, human Src enzyme (Homo sapiens, UniProt P12931).
T2 construct: purchased Carna Biosciences, Inc. 08-173
T2 sequence (P12931 whole entry): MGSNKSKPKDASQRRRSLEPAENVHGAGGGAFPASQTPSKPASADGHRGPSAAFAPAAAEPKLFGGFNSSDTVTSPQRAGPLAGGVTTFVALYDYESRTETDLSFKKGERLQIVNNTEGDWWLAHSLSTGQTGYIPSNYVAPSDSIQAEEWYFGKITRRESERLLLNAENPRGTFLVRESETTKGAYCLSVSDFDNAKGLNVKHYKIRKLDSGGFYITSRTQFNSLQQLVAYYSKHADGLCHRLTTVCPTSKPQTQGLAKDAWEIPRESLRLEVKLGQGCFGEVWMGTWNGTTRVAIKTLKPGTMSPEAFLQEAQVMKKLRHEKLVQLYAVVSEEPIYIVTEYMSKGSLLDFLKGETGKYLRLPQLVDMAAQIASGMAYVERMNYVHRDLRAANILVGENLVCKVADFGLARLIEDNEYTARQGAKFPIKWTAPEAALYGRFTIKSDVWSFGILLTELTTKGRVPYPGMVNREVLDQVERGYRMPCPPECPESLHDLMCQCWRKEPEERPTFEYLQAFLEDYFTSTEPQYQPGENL
The experiment is described as follows: Src enzyme inhibitory activity (time-resolved fluorometry, biotinylated peptide phosphorylation). Particulars: read-out: SRC_IC50. Summed up: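 Compounds were tested for blocking tyrosine phosphorylation of a biotinylated peptide substrate by recombinant human Src. Phosphorylated product was quantified by time-resolved fluorometry using europium cryptate and XL665 conjugates, and IC50 was calculated against the compound-free control.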

Experiment [3] addresses T3, human Lck enzyme (Homo sapiens, UniProt P06239).
T3 construct: purchased Carna Biosciences, Inc. 08-170
Briefly: Lck enzyme inhibitory activity (time-resolved fluorometry, biotinylated peptide phosphorylation). Conditions: read-out: LCK_IC50. A digest of the protocol:
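Readout pairs a europium cryptate-labelled anti-phosphotyrosine antibody with XL665-streptavidin, measured by time-resolved fluorescence. IC50 derived from percent inhibition against untreated controls.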

Where [4] appears, read: biotinylated peptide phosphorylation.

T1 sequence (P07947 whole entry): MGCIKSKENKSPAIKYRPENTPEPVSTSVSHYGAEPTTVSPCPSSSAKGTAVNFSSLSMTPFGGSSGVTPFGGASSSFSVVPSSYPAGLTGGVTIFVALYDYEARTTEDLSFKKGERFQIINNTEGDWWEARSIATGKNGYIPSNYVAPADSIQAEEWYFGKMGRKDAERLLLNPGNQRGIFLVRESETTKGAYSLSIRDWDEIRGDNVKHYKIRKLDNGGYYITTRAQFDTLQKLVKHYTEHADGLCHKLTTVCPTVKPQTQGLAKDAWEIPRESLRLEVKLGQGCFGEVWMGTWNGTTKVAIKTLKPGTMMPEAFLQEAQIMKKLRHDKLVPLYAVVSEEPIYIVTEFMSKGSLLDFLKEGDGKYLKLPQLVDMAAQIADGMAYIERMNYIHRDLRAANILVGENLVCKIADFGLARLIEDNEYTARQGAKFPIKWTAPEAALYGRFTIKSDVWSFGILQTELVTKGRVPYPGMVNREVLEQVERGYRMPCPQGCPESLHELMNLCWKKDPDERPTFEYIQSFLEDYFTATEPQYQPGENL
T3 sequence (P06239 whole entry): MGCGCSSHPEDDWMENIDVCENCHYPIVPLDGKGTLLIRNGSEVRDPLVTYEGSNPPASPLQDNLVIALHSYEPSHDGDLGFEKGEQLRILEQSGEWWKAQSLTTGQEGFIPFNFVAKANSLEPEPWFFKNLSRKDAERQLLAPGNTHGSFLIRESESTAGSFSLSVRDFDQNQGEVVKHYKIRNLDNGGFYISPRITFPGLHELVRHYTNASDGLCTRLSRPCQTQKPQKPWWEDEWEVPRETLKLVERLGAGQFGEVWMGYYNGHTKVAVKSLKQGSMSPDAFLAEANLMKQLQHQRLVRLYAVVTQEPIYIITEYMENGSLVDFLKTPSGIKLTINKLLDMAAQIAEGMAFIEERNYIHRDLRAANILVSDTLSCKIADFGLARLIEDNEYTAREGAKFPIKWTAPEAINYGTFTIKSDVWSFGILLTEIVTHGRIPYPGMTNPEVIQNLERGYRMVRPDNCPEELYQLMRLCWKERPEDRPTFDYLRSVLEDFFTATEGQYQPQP

Take `Cc1cc2cc(C(=O)c3cnn(-c4cnc(Oc5c(F)cccc5F)cc4C)c3N)[nH]c2cc1N1C(=O)NC2(CCN(Cc3ccccc3)CC2)C1=O` [Example 5-1-361, 3-[2-[5-amino-1-[6-(2,6-difluorophenoxy)-4-methylpyridin-3-yl]pyrazole-4-carbonyl]-5-methyl-1H-indol-6-yl]-8-benzyl-1,3,8-triazaspiro[4.5]decane-2,4-dione]: the IC50 in experiment [1] was found to be 9.2 nM; in experiment [2], 170 nM; in experiment [3], 26 nM.

Regarding `Cc1cc2cc(C(=O)c3cnn(-c4c(C)cc(Oc5cccc(F)c5F)cc4F)c3N)[nH]c2cc1NS(=O)(=O)CCCF` [Example 4-2-071, N-[2-[5-amino-1-[4-(2,3-difluorophenoxy)-2-fluoro-6-methylphenyl]pyrazole-4-carbonyl]-5-methyl-1H-indol-6-yl]-3-fluoropropane-1-sulfonamide], the IC50 in experiment [1] (setting [4]) worked out at 12 nM; in experiment [2] (setting [4]), 160 nM; in experiment [3] (setting [4]), 78 nM.

Turning to `Cc1cc2cc(C(=O)c3cnn(-c4cnc(Oc5ccccc5F)cc4C)c3N)[nH]c2cc1N1CCOCC1` [Example 4-2-123, [5-amino-1-[6-(2-fluorophenoxy)-4-methylpyridin-3-yl]pyrazol-4-yl]-(5-methyl-6-morpholin-4-yl-1H-indol-2-yl)methanone], the IC50 came out at 1.9 nM in experiment [1] (setting [4]), 37 nM in experiment [2] (setting [4]) and 5.8 nM in experiment [3] (setting [4]).

As to `Cc1cc(Oc2ccccc2F)ncc1-n1ncc(C(=O)c2cc3cc(F)c(NS(=O)(=O)c4cc(F)cc(F)c4)cc3[nH]2)c1N` [Example 5-1-564, N-[2-[5-amino-1-[6-(2-fluorophenoxy)-4-methylpyridin-3-yl]pyrazole-4-carbonyl]-5-fluoro-1H-indol-6-yl]-3,5-difluorobenzenesulfonamide], the IC50 came to 14 nM in experiment [1] (setting [4]), 1500 nM in experiment [2] (setting [4]) and 680 nM in experiment [3] (setting [4]).

Take `Cc1cc(Oc2c(F)cccc2F)ncc1-n1ncc(C(=O)c2cc3cc(F)c(N4C(=O)N[C@@H](C(C)C)C4=O)cc3[nH]2)c1N` [Example 5-1-431, (5S)-3-[2-[5-amino-1-[6-(2,6-difluorophenoxy)-4-methylpyridin-3-yl]pyrazole-4-carbonyl]-5-fluoro-1H-indol-6-yl]-5-propan-2-ylimidazolidine-2,4-dione]: the figures for the IC50 in experiment [1] (setting [4]), in experiment [2] (setting [4]) and in experiment [3] (setting [4]) were 4.9 nM, 190 nM and 20 nM, respectively.

Consider `Cc1cc(Oc2ccccc2F)ncc1-n1ncc(C(=O)c2cc3cc(OCC(F)F)c(N4C(=O)NC(C)(C)C4=O)cc3[nH]2)c1N` [Example 5-1-377, 3-[2-[5-amino-1-[6-(2-fluorophenoxy)-4-methylpyridin-3-yl]pyrazole-4-carbonyl]-5-(2,2-difluoroethoxy)-1H-indol-6-yl]-5,5-dimethylimidazolidine-2,4-dione], for which the IC50 in experiment [1] came out at 2 nM; in experiment [2], 17 nM; in experiment [3] it was 7.4 nM.

Consider `Cc1cc(Oc2ccccc2F)ncc1-n1ncc(C(=O)c2cc3cc(N(CCN4CCOCC4)S(C)(=O)=O)c(O)cc3[nH]2)c1N` [Example 4-2-130], for which the IC50 in experiment [1] (setting [4]) is 1.4 nM; in experiment [2] (setting [4]) it was 34 nM; in experiment [3] (setting [4]), 4.5 nM.

Consider `COc1ccnc(S(=O)(=O)Nc2cc3[nH]c(C(=O)c4cnn(-c5cnc(Oc6ccccc6F)cc5C)c4N)cc3cc2F)c1` [Example 5-1-514, N-[2-[5-amino-1-[6-(2-fluorophenoxy)-4-methylpyridin-3-yl]pyrazole-4-carbonyl]-5-fluoro-1H-indol-6-yl]-4-methoxypyridine-2-sulfonamide], for which the IC50 in experiment [1] (setting [4]) worked out at 3.3 nM; in experiment [2] (setting [4]) it was 760 nM; in experiment [3] (setting [4]), 140 nM.

For the molecule `Cc1cc(Oc2ccccc2F)cc(F)c1-n1ncc(C(=O)c2cc3cc(OCC(F)F)c(NC4COC4)cc3[nH]2)c1N` [Example 4-23-019, [5-amino-1-[2-fluoro-4-(2-fluorophenoxy)-6-methylphenyl]pyrazol-4-yl]-[5-(2,2-difluoroethoxy)-6-(oxetan-3-ylamino)-1H-indol-2-yl]methanone], the IC50 turned out to be 1.8 nM in experiment [1] (setting [4]), 28 nM in experiment [2] (setting [4]) and 6.4 nM in experiment [3] (setting [4]).

Regarding `Cc1cc(Oc2c(F)cccc2F)ncc1-n1ncc(C(=O)c2cc3cc(OC4CCN(C5CS(=O)(=O)C5)CC4)c(Br)cc3[nH]2)c1N` [Example 5-1-228, [5-amino-1-[6-(2,6-difluorophenoxy)-4-methylpyridin-3-yl]pyrazol-4-yl]-[6-bromo-5-[1-(1,1-dioxothietan-3-yl)piperidin-4-yl]oxy-1H-indol-2-yl]methanone], the IC50 turned out to be 1.3 nM in experiment [1], 13 nM in experiment [2] and 3.1 nM in experiment [3].

In the case of `Cc1cc(Oc2ccccc2F)ccc1-n1ncc(C(=O)c2cc3cc(F)c(N4C(=O)NC(C)(C(F)(F)F)C4=O)cc3[nH]2)c1N` (stereo not drawn) [Example 5-1-412, 3-[2-[5-amino-1-[4-(2-fluorophenoxy)-2-methylphenyl]pyrazole-4-carbonyl]-5-fluoro-1H-indol-6-yl]-5-methyl-5-(trifluoromethyl) imidazolidine-2,4-dione], the IC50 in experiment [1] (setting [4]) came to 3 nM; in experiment [2] (setting [4]), 100 nM; in experiment [3] (setting [4]) it was 17 nM.

Regarding `Cc1cc(-n2ncc(C(=O)c3cc4cc(OC5CCN(C6CCC6)CC5)c(Br)cc4[nH]3)c2N)ccc1Oc1ccccc1F` [Example 5-1-218, [5-amino-1-[4-(2-fluorophenoxy)-3-methylphenyl]pyrazol-4-yl]-[6-bromo-5-(1-cyclobutylpiperidin-4-yl)oxy-1H-indol-2-yl] methanone], the IC50 in experiment [1] was 0.64 nM; in experiment [2], 220 nM; in experiment [3] it was 39 nM.

With `Cc1cc2cc(C(=O)c3cnn(-c4c(C)cc(Oc5ccccc5F)cc4F)c3N)[nH]c2cc1NS(=O)(=O)CCCF` [Example 4-2-070, N-[2-[5-amino-1-[2-fluoro-4-(2-fluorophenoxy)-6-methylphenyl]pyrazole-4-carbonyl]-5-methyl-1H-indol-6-yl]-3-fluoropropane-1-sulfonamide], the IC50 in experiment [1] (setting [4]) was determined as 7.6 nM; in experiment [2] (setting [4]), 140 nM; in experiment [3] (setting [4]), 47 nM.

For `Cc1cc(-n2ncc(C(=O)c3cc4cc(OC5CCN(C6CCCC6)CC5)c(-c5ccccc5Cl)cc4[nH]3)c2N)ccc1Oc1ccccc1F` [Example 5-1-285, [5-amino-1-[4-(2-fluorophenoxy)-3-methylphenyl]pyrazol-4-yl]-[6-(2-chlorophenyl)-5-(1-cyclopentylpiperidin-4-yl)oxy-1H-indol-2-yl]methanone], the IC50 in experiment [1] turned out to be 5.2 nM; in experiment [2] it was 2300 nM; in experiment [3] it was 500 nM.

For the molecule `Cc1cc(Oc2ccccc2F)ccc1-n1ncc(C(=O)c2cc3cc(OCC(F)F)c(NS(=O)(=O)CCC(F)F)cc3[nH]2)c1N` [Example 4-24-023, N-[2-[5-amino-1-[4-(2-fluorophenoxy)-2-methylphenyl]pyrazole-4-carbonyl]-5-(2,2-difluoroethoxy)-1H-indol-6-yl]-3,3-difluoropropane-1-sulfonamide], the IC50 in experiment [1] (setting [4]) is 2.3 nM; in experiment [2] (setting [4]), 24 nM; in experiment [3] (setting [4]), 14 nM.

In the case of `Cc1cc(Oc2ccccc2F)ncc1-n1ncc(C(=O)c2cc3cc(F)c(NS(=O)(=O)c4cccc(F)c4)cc3[nH]2)c1N` [Example 5-1-554, N-[2-[5-amino-1-[6-(2-fluorophenoxy)-4-methylpyridin-3-yl]pyrazole-4-carbonyl]-5-fluoro-1H-indol-6-yl]-3-fluorobenzenesulfonamide], the IC50 came out at 13 nM in experiment [1] (setting [4]), 1500 nM in experiment [2] (setting [4]) and 260 nM in experiment [3] (setting [4]).

Consider `Cc1cc(Oc2ccccc2F)ccc1-n1ncc(C(=O)c2cc3cc(C(C)C)c(Br)cc3[nH]2)c1N` [Example 5-1-260, [5-amino-1-[4-(2-fluorophenoxy)-2-methylphenyl]pyrazol-4-yl]-(6-bromo-5-propan-2-yl-1H-indol-2-yl)methanone], for which the IC50 in experiment [1] is 8.5 nM; in experiment [2] it was 61 nM; in experiment [3] it was 44 nM.

As for `Cc1cc2cc(C(=O)c3cnn(-c4ccc(Oc5ccccc5F)cc4C)c3N)[nH]c2cc1N1C(=O)NC2(CCOCC2)C1=O` [Example 5-1-408, 3-[2-[5-amino-1-[4-(2-fluorophenoxy)-2-methylphenyl]pyrazole-4-carbonyl]-5-methyl-1H-indol-6-yl]-8-oxa-1,3-diazaspiro[4.5] decane-2,4-dione], the values for the IC50 in experiment [1] (setting [4]), in experiment [2] (setting [4]) and in experiment [3] (setting [4]) were 1.2 nM, 43 nM and 6.1 nM, respectively.

With `Cc1cc(Oc2ccccc2F)ncc1-n1ncc(C(=O)c2cc3cc(OC(F)F)c(NC4COC4)cc3[nH]2)c1N` [Example 4-23-013, [5-amino-1-[6-(2-fluorophenoxy)-4-methylpyridin-3-yl]pyrazol-4-yl]-[5-(difluoromethoxy)-6-(oxetan-3-ylamino)-1H-indol-2-yl]methanone], the figures for the IC50 in experiment [1] (setting [4]), in experiment [2] (setting [4]) and in experiment [3] (setting [4]) were 1.6 nM, 40 nM and 4.6 nM, respectively.

For `Cc1cc2cc(C(=O)c3cnn(-c4cnc(Oc5c(F)cccc5F)cc4C)c3N)[nH]c2cc1NS(=O)(=O)c1c(F)cc(F)cc1F` [Example 5-1-565, N-[2-[5-amino-1-[6-(2,6-difluorophenoxy)-4-methylpyridin-3-yl]pyrazole-4-carbonyl]-5-methyl-1H-indol-6-yl]-2,4,6-trifluorobenzenesulfonamide], the IC50 in experiment [1] (setting [4]) was 19 nM; in experiment [2] (setting [4]) it was 1100 nM; in experiment [3] (setting [4]) it was 720 nM.
